According to patent US10525055B2, “Opioid receptor antagonist prodrugs” (Nirsum Laboratories, Inc., priority 2017, dated 2020):

Legend:
[1] = Plasma stability assay, rat plasma; type: in vitro ADME; conditions: 37° C., 10 μM
[2] = Solubility determination in oil (cottonseed oil, sesame oil); conditions: heating temp. 60 °C
Protocol: A known amount of test substance (˜40 mg) was weighed into the vial, 100 μL of oil was added and heated to 60° C. and then system was slurried to reach equilibrium. […] Extra oil was added into the vial once compound precipitated out and then the system was re-equilibrated at 1000 rpm at room temperature (25° C.). Final concentration was determined by HPLC method as described below in Table 6a and 6b.

[3] = Physical characterization of solid state drug substance (PLM, XRPD, DSC, TGA); type: physicochemical; conditions: for Thermal Gravimetric Analysis, weight loss: at 120° C., heated from room temperature at 10° C./minute
Protocol: The analysis of the physical characteristics of drug substances that were in a solid state was conducted using polarized light microscopy (PLM), X-ray powder diffractometer (XRPD) assessment, Differential Scanning calorimetry (DSC) and Thermal Gravimetric Analysis (TGA). For PLM, samples were dispersed in immersion oil and were observed using an ocular lens (10×) and objective lens (20×) under crossed polarizers. For XRPD, samples were run on a diffractometer using the following method: Tube—Cu: K-alpha (λ=1.54179 Å); Generator—Voltage 40 kV, Current 40 mA; Scan scope—3 to 40°; sample rotation speed—15 rpm; scanning rate—10 deg/min. For DSC, ˜1 mg of sample was tested using a crimped aluminum pan and covered by a lid with a hole, heated from room temperature to 300° C. at a speed of 10° C./minute. For TGA, 2-5 mg of sample was placed in an open platinum pan and heated from room temperature to 300° C. at a rate of 10° C./minute.

[4] = Polymorph screening of solid state drug substances; conditions: for XRPD results (Dried): stirred 50 °C 72 hours, solids dried; for Visual observation 50° C. / Visual observation RT: target conc. 100 mg/ml; for Comment: stability of initial crystal form (pattern A): polymorph screen over Heptane
[5] = MTBE, Isopropanol, EtOAc, Acetone

Compound | % remaining at time point in minutes, 0 min [1] [%] | % remaining at time point in minutes, 15 min [1] [%] | % remaining at time point in minutes, 120 min [1] [%] | % remaining at time point in minutes, 480 min [1] [%] | % remaining at time point in minutes, 1440 min [1] [%] | XRPD results (Dried) ([4]; Acetone) | Visual observation 50° C. ([4]; Acetone) | Visual observation RT ([4]; Acetone) | XRPD results (Dried) ([4]; EtOAc) | Visual observation 50° C. ([4]; EtOAc) | Visual observation RT ([4]; EtOAc) | XRPD results (Dried) ([4]; Heptane) | Visual observation 50° C. ([4]; Heptane) | Visual observation RT ([4]; Heptane) | XRPD results (Dried) ([4]; Isopropanol) | Visual observation 50° C. ([4]; Isopropanol) | Visual observation RT ([4]; Isopropanol) | XRPD results (Dried) ([4]; MTBE) | Visual observation 50° C. ([4]; MTBE) | Visual observation RT ([4]; MTBE) | further results
CCCCCCCCCCCCCCCC(=O)Oc1ccc2c3c1O[C@H]1C(=O)CC[C@@]4(O)C(C2)N(CC2CC2)CC[C@]314 [Compound 55, (4aS,7aR,12bS)-3-(cyclopropylmethyl)-4a-hydroxy-7-oxo-2,3,4,4a,5,6,7,7a-octahydro-1H-4,12-methanobenzofuro[3,2-e]isoquinolin-9-yl palmitate] | 100 | 77.3 | 47.2 | 27.1 | 15.6 | Pattern B | Clear | Slurry | Pattern B | Clear | Slurry | Pattern B | Clear | Slurry | Pattern B | Clear | Slurry | Pattern B | Clear | Clear | Approximate Solubility (mg/mL) in Excipient: Ethanol ([2]; Ethanol, obs. temp. 40 °C): >401.1 mg/mL; Approximate Solubility (mg/mL) in Excipient: Sesame oil ([2]; obs. temp. 40 °C): >394.8 mg/mL; Thermal Gravimetric Analysis, weight loss [3]: Weight loss of 0.2597%; Comment: stability of initial crystal form (pattern A) [4, 5]: Cannot determine which crystal form
C=C1CC[C@@]2(O)C3Cc4ccc(OC(=O)OCCCCCCCCCCCCCC)c5c4[C@@]2(CCN3CC2CC2)[C@H]1O5 [Compound 31, (4aS,7aS,12bS)-3-(cyclopropylmethyl)-4a-hydroxy-7-methylene-2,3,4,4a,5,6,7,7a-octahydro-1H-4,12-methanobenzofuro[3,2-e]isoquinolin-9-yl tetradecyl carbonate] | 100 | 123.2 | 73.5 | 54.4 | 46.4 | Pattern A | Clear | Slurry | Pattern A | Clear | Clear | Pattern A | Clear | Slurry | Pattern A | Clear | Clear | Pattern A | Clear | Slurry | Approximate Solubility (mg/mL) in Excipient: Sesame oil ([2]; obs. temp. 25 °C): >413.5 mg/mL; Thermal Gravimetric Analysis, weight loss [3]: Weight loss of 0.7244%
CCCCCCCCCCCCCCCCOC(=O)Oc1ccc2c3c1O[C@H]1C(=O)CC[C@@]4(O)C(C2)N(CC2CC2)CC[C@]314 [Compound 21, (4aS,7aR,12bS)-3-(cyclopropylmethyl)-4a-hydroxy-7-oxo-2,3,4,4a,5,6,7,7a-octahydro-1H-4,12-methanobenzofuro[3,2-e]isoquinolin-9-yl hexadecyl carbonate] | 100 | 73.5 | 68.3 | 59.8 | 40.9 | Pattern A | Clear | Slurry | Pattern A | Clear | Slurry | Pattern A | Clear | Slurry | Pattern A | Clear | Slurry | Pattern A | Clear | Clear | Approximate Solubility (mg/mL) in Excipient: Sesame oil ([2]; obs. temp. 40 °C): 101 to 134.5 mg/mL; X-ray Powder Diffraction ([3]; solid state drug substance, XRPD/PLM): Crystal Form with partial; Comment: stability of initial crystal form (pattern A) [4, 5]: stable form. Same crystal form
